Source: patent US20220401367A1, “REHYDRATABLE, MORPHOLOGICALLY DIVERSE NANOCARRIER POWDERS” (Northwestern University, priority 2021, published 2022)

Legend:
RAW 264.7 macrophages [1] = test: Flow cytometric analysis of nanocarrier uptake by macrophages (MFI), with or without endocytosis inhibitors; assay type: cell-based; conditions: 50 μM CytD or 50 μM CPZ pre-treatment; nanocarriers at 1.0 mg/mL polymer
Experimental: (§1) Macrophage cell culture. RAW 264.7 macrophages were purchased from ATCC and were cultured in T75 polystyrene tissue culture flasks (BD Biosciences) in Dulbecco's Modified Eagle Medium supplemented with 10% fetal bovine serum (FBS) (Gibco) and 1% penicillin/streptomycin antibiotics (Life Technologies). Cells were passaged by mechanical scraping after reaching 70-80% confluency.
(§2) Flow cytometric analysis of nanocarrier uptake and cytotoxicity. For each specified cell line, a total of 100,000 cells were seeded per well in 24-well polystyrene plates (Falcon). Cells were allowed to adhere overnight at 37° C., 4.0% CO2. For uptake studies involving endocytosis inhibitor pre-treatments, cells were incubated with either PBS (i.e., no inhibitor), cytochalasin D (CytD, 50 μM) phagocytosis inhibitor, or chlorpromazine (CPZ, 50 μM) clathrin-mediated endocytosis inhibitor prior to administering nanocarriers. Inhibitor concentrations were chosen based on published reports^36,53. Cells were treated with nanocarriers at the specified polymer concentration for 2 h. […] A total of 10,000 single cell events were recorded per sample and the resulting data were analyzed using the Cytobank analysis suite^54. The median fluorescence intensity (MFI) was normalized by subtracting the average MFI from untreated cells and was used to quantify the cellular uptake of nanocarriers.

RAW 264.7 macrophages [2] = test: Flow cytometric cytotoxicity (Zombie Aqua viability dye) in macrophages; assay type: cell-based; conditions: mouse, 70 %
Experimental: as §1, §2

Structure (SMILES) | nanocarrier uptake after pre-treatment with endocytosis inhibitors (in words) (RAW 264.7 macrophages [1]) | macrophage viability (RAW 264.7 macrophages [2])
CN(C)CCCN1c2ccccc2Sc2ccc(Cl)cc21 [chlorpromazine] | decreased uptake of all structures | –
CCO [70% ethanol, ethanol] | – | below 30%
C=C1[C@@H](C)[C@H]2[C@H](Cc3ccccc3)NC(=O)[C@]23[C@H](OC(C)=O)/C=C/[C@@](C)(O)C(=O)[C@@H](C)C/C=C/[C@H]3[C@@H]1O [cytochalasin D] | decreased uptake of all structures | –
